Source: patent US20240238278A1, “Pharmaceutical Composition for Preventing or Treating Fibrosis” (Daewoong Pharmaceutical Co., Ltd., priority 2021, published 2024)

Experiments:
[1] = Safety/tolerance in healthy adults clinical trial; type: in vivo, human; details: 72 healthy adults, single (100-600 mg) and multiple (25-200 mg twice a day, 14 days) administration
Description: (§1) The formulation used in the clinical trial was prepared in the same manner as in Preparation Examples 1 and 2.

[2] = Human pharmacokinetics, single administration; type: in vivo; details: for CL/F / Cmax / MRT / T1/2 / tmax (median) / AUC(0-inf) / AUC(0-t) / Tmax: healthy adults, empty stomach; for Tmax: read-out: tmax (median)
Description: as §1

[3] = Human pharmacokinetics, multiple administration (Day 14); type: in vivo; details: for Accumulation ratio based on AUCτ / CL/Fss / Cmax, ss / MRT / T1/2 / Vz/Fss / tmax, ss (median) / AUCτ / AUC(0-inf): healthy adults; for Accumulation ratio based on AUCτ / CL/Fss / Cmax, ss / MRT / T1/2 / Vz/Fss / tmax, ss (median) / AUC(0-inf): Day 14; for AUCτ: Day 14, 12 hour dosing interval
Description: as §1

[4] = Pharmacokinetic model prediction of exposure in humans at various oral doses; parameters: species or system human; details: model-predicted
Source text: Therefore, the optimal pharmacokinetic model parameters that can explain the changes in concentrations at all doses observed using Excel® and WinNonlin8.1 software were estimated for the blood drug concentration obtained in the human multidose clinical trial.

[5] = system: animal model of pulmonary fibrosis; test: Lung function evaluation (SpO2) in BLM animal model; type: in vivo, mouse; details: BLM mice, PO, day 21, first component 10 mg/kg, NIN 60 mg/kg, PID 200 mg/kg
Description: (§2) 70-100 uL of BLM solution (bleomycin 1-3 mg/kg) was administered to a lung of the acclimatized experimental animals using a catheter for 5 days or more. In accordance with the purpose of the test, the test drug was administered 7 days after BLM administration, and the drug was orally administered for 2 weeks until the 21st day of BLM administration.
This lung function evaluation is the most direct and important evaluation index that has the greatest influence on the symptoms and quality of life of patients with pulmonary fibrosis, and is an experiment that can most directly show the effect of improving lung function in an animal model of pulmonary fibrosis by measuring the oxygen concentration in the body.
On the 21st day, it was measured with a SpO2 measuring device (Berry, Veterinary Pulse Oximeter) via the abdominal side of the mouse, and the results are shown in Table 5 and FIG. 3.

[6] = system: DHLF cell line; test: Non-clinical anti-fibrotic efficacy: Western blotting of TGF-β treated DHLF cell line; type: cell-based; details: TGF-β 10 ng/ml, 72 hours
Description: 10 mM of the first component was diluted with DMSO so as to be to 100 uM. It was diluted with DMSO so as to be 10, 3, 1 uM, and 10 mM of the second component (NIN) was diluted with DMSO to be 50 nM.
A DHLF cell line (FGM™-2 Bullet Kit™, 10% FBS), which is a lung fibrosis cell line, was prepared, and cultured in a T75 Easy Flask Filter at 37° C. and 5% CO2 using FBM medium. The cultured DHLF cell line was treated with 10 ng/mL of TGF-β and the test drug alone or in combination, cultured for 72 hours, then the media was removed, the protein was extracted, and the extracted protein was quantified using the BCA Protein Assay Kit. Based on the quantitative value of each extracted protein, 10 to 20 ug of protein was subjected to Western blotting. The protein after running was transferred to the PVDF membrane. After TBS-T washing 3 times, each PVDF membrane was treated with 1 mL of ECL solution, and then the protein expression level was measured using an AI680 imager. Each band value was calculated as a numerical value normalized compared to β-actin through ImageJ, and is shown in Tables 2 and 3 and FIGS. 1 and 2 below.

[7] = system: animal model of pulmonary fibrosis; test: Measurement of total collagen content in lung (INSOLUBLE Collagen Assay); type: in vivo, mouse; details: BLM mice, PO, day 21, n 9; first component 10 mg/kg, NIN 60 mg/kg, PID 200 mg/kg
Description: as §2
In this experimental example, analysis was performed using INSOLUBLE Collagen Assay (Biocolor, S2000). After sacrifice on the 21st day, the cryopreserved lung tissue was pulverized by adding 100 uL of Fragmentation Reagent, and then, 100 uL of 37% HCl was added and incubated at 65° C. for 3 hours. The contents of the tube were shaken at 30 minute intervals to aid tissue disintegration. After centrifugation, the concentration was adjusted to 100 μL and collagen staining was proceeded to prepare a sample. Absorbance was measured at 560 nm.

[8] = system: animal model of pulmonary fibrosis; test: Inflammation cell count analysis in BALF; type: in vivo; details: BLM mice, PO, day 21; first component 10 mg/kg, NIN 60 mg/kg, PID 200 mg/kg
Description: as §2
At the sacrifice on the 21st day of administration, BALF (Bronchoalveolar lavage fluid) cells obtained through airway washing of mice were diluted with 1.05×PBS and attached to a slide, and then the slide was immersed and removed for 30 seconds in the order of 1, 2, 3 diff quick stain solution, and stained. It was counted based on 500 cells. Macrophages are the largest in size, mononuclear, and stained blue. Neutrophils and eosinophils form polynuclear cells, but eosinophils are stained red with eosin and distinguished from neutrophils. Lymphocytes have very less cytoplasm and are small in size as monocytes.

[9] = Drug interaction clinical trial, combined administration; type: in vivo, human; details: Part 2, healthy adults; first component 150 mg enteric tablet
Description: To evaluate the drug interaction during the combined administration of the first component and the second component, a clinical trial was conducted on a total of 48 healthy adults, divided into two groups of 24 each for Part 1 and Part 2. The clinical trial was designed by a fixed sequence, three-phase, and one 150 mg enteric tablet of the first component was orally administered.
Subjects enrolled in Part 1 were sequentially given a single dose of 600 mg of the second component (PID) in the phase 1, a single dose of 150 mg of the first component in the phase 2. After that, washout progressed on the 3rd day, and 150 mg of the first component was administered multiple times for 3 days, and in the final phase 3, a single dose of the first component and the second components (NIN) was administered in combination.

[10] = Measurement of change in body weight in BLM animal model; type: in vivo, mouse; parameters: unit not given here; details: BLM mice, first component 10 mg/kg, NIN 60 mg/kg, PID 200 mg/kg
Description: as §2
The body weight was measured once every 0, 7, 14, 17, and 21 days for 3 weeks, and from the 14th day when the drug effect began to be noticeable after the administration, it was measured every 3 days.

[11] = single oral 100 mg, enteric coated capsules
[12] = single oral 300 mg, enteric coated capsules
[13] = single oral 500 mg, enteric coated tablet
[14] = single oral 600 mg, enteric coated capsules
[15] = human, plasma, single oral 100 mg, enteric coated capsules
[16] = human, plasma, single oral 300 mg, enteric coated capsules
[17] = human, plasma, single oral 500 mg, enteric coated tablet
[18] = human, plasma, single oral 600 mg, enteric coated capsules
[19] = Table 2, second component (NIN) 50 ng/ml alone
[20] = Table 3, second component (NIN) 100 ng/ml alone

O[C@H]1CCCN[C@@H]1CCCn1cnc2c(Cl)c(Cl)ccc21 [Active component]
serious abnormal signs or side effects [1]: no serious abnormal signs or side effects
CL/F [2, 11]: 156.48 L/h
Cmax [2, 11]: 123.96 ng/mL
MRT [2, 11]: 9.26 h
T1/2 [2, 11]: 6.91 h
CL/F [2, 12]: 196.59 L/h
Cmax [2, 12]: 276.80 ng/mL
MRT [2, 12]: 9.75 h
T1/2 [2, 12]: 8.33 h
tmax (median) [2, 12]: 2.50 h
CL/F [2, 13]: 213.75 L/h
Cmax [2, 13]: 513.56 ng/mL
MRT [2, 13]: 9.57 h
T1/2 [2, 13]: 7.80 h
tmax (median) [2, 13]: 3.01 h
CL/F [2, 14]: 312.07 L/h
Cmax [2, 14]: 213.43 ng/mL
MRT [2, 14]: 9.79 h
T1/2 [2, 14]: 9.90 h
half-life ([2]; human, plasma, oral, single administration, across 100-600 mg doses, read-out: geometric mean half-life): 6.91 to 9.9 h
AUC(0-inf) [2, 15]: 639 ng·h/mL
AUC(0-t) [2, 15]: 594 ng·h/mL
Tmax [2, 15]: 3 h
AUC(0-inf) [2, 16]: 1530 ng·h/mL
AUC(0-t) [2, 16]: 1480 ng·h/mL
AUC(0-inf) [2, 17]: 2340 ng·h/mL
AUC(0-t) [2, 17]: 2280 ng·h/mL
AUC(0-inf) [2, 18]: 1920 ng·h/mL
AUC(0-t) [2, 18]: 1010 ng·h/mL
Tmax [2, 18]: 2 h
relationship of plasma concentrations to dose ([2]; single administration): dose proportional relationship
Accumulation ratio based on AUCτ ([3]; 25 mg tablet twice a day): 1.94
CL/Fss ([3]; 25 mg tablet twice a day): 122.65 L/h
Cmax, ss ([3]; 25 mg tablet twice a day): 36.50 ng/mL
MRT ([3]; 25 mg tablet twice a day): 10.53 h
T1/2 ([3]; 25 mg tablet twice a day): 7.63 h
Vz/Fss ([3]; 25 mg tablet twice a day): 1433.79 L
tmax, ss (median) ([3]; 25 mg tablet twice a day): 2.00 h
AUCτ ([3]; 25 mg tablet twice a day): 183.32 ng·h/mL
Accumulation ratio based on AUCτ ([3]; 50 mg tablet twice a day): 2.33
CL/Fss ([3]; 50 mg tablet twice a day): 116.53 L/h
Cmax, ss ([3]; 50 mg tablet twice a day): 102.61 ng/mL
MRT ([3]; 50 mg tablet twice a day): 8.44 h
T1/2 ([3]; 50 mg tablet twice a day): 4.40 h
Vz/Fss ([3]; 50 mg tablet twice a day): 738.97 L
AUCτ ([3]; 50 mg tablet twice a day): 429.09 ng·h/mL
Accumulation ratio based on AUCτ ([3]; 100 mg tablet twice a day): 1.88
CL/Fss ([3]; 100 mg tablet twice a day): 161.97 L/h
Cmax, ss ([3]; 100 mg tablet twice a day): 151.27 ng/mL
MRT ([3]; 100 mg tablet twice a day): 10.17 h
T1/2 ([3]; 100 mg tablet twice a day): 9.26 h
Vz/Fss ([3]; 100 mg tablet twice a day): 2163.04 L
tmax, ss (median) ([3]; 100 mg tablet twice a day): 3.00 h
AUCτ ([3]; 100 mg tablet twice a day): 617.40 ng·h/mL
Accumulation ratio based on AUCτ ([3]; 200 mg tablet twice a day): 3.75
CL/Fss ([3]; 200 mg tablet twice a day): 66.39 L/h
Cmax, ss ([3]; 200 mg tablet twice a day): 595.35 ng/mL
MRT ([3]; 200 mg tablet twice a day): 12.07 h
T1/2 ([3]; 200 mg tablet twice a day): 12.35 h
Vz/Fss ([3]; 200 mg tablet twice a day): 1182.53 L
AUCτ ([3]; 200 mg tablet twice a day): 3012.35 ng·h/mL
AUC(0-inf) ([3]; human, plasma, oral, 25 mg tablet twice a day): 301 ng·h/mL
AUC(0-inf) ([3]; human, plasma, oral, 50 mg tablet twice a day): 565 ng·h/mL
AUC(0-inf) ([3]; human, plasma, oral, 100 mg tablet twice a day): 888 ng·h/mL
AUC(0-inf) ([3]; human, plasma, oral, 200 mg tablet twice a day): 4750 ng·h/mL
AUC ([3]; human, plasma, oral, multiple administration, 14th day, across 25-200 mg, read-out: geometric mean dose interval in vivo exposure (AUCτ)): 183 to 3010 ng·h/mL
half-life ([3]; human, plasma, oral, multiple administration, 14th day, across 25-200 mg, read-out: geometric mean half-life): 4.4 to 12.3 h
relationship of plasma concentrations to dose ([3]; multiple administration, dose range of 25 mg to 200 mg): dose linear relationship
AUCtau ([4]; oral Dose 50 mg): 231.6352 ng·h/mL
AUCtau—24 hr ([4]; oral Dose 50 mg): 463.2704 ng·h/mL
CL/F ([4]; oral Dose 50 mg): 215856.7 mL/h
Cmax ([4]; oral Dose 50 mg): 38.271 ng/mL
T1/2 ([4]; oral Dose 50 mg): 9.753 h
Tmax ([4]; oral Dose 50 mg): 2.803 h
AUCtau ([4]; oral Dose 100 mg): 463.2704 ng·h/mL
AUCtau—24 hr ([4]; oral Dose 100 mg): 926.5407 ng·h/mL
CL/F ([4]; oral Dose 100 mg): 215856.7 mL/h
Cmax ([4]; oral Dose 100 mg): 76.5419 ng/mL
T1/2 ([4]; oral Dose 100 mg): 9.753 h
Tmax ([4]; oral Dose 100 mg): 2.803 h
AUCtau ([4]; oral Dose 150 mg): 694.9055 ng·h/mL
AUCtau—24 hr ([4]; oral Dose 150 mg): 1389.811 ng·h/mL
CL/F ([4]; oral Dose 150 mg): 215856.7 mL/h
Cmax ([4]; oral Dose 150 mg): 114.813 ng/mL
T1/2 ([4]; oral Dose 150 mg): 9.753 h
Tmax ([4]; oral Dose 150 mg): 2.803 h
AUCtau ([4]; oral Dose 200 mg): 926.5413 ng·h/mL
AUCtau—24 hr ([4]; oral Dose 200 mg): 1853 ng·h/mL
CL/F ([4]; oral Dose 200 mg): 215856.5 mL/h
Cmax ([4]; oral Dose 200 mg): 153.084 ng/mL
T1/2 ([4]; oral Dose 200 mg): 9.753 h
Tmax ([4]; oral Dose 200 mg): 2.803 h

COC(=O)c1ccc2c(c1)NC(=O)/C2=C(\Nc1ccc(N(C)C(=O)CN2CCN(C)CC2)cc1)c1ccccc1 [Second component (NIN), Nintedanib]
SpO2 Average value [5]: 79.8
SpO2 Differance ([5]; vs vehicle): 3.8
SpO2 Rate of increase ([5]; vs vehicle): 5%
COL1A1 Relative value (based on control) [6, 19]: 4.60
SMA-α Relative value (based on control) [6, 19]: 2.63
COL1A1 Relative value (based on control) [6, 20]: 2.81
SMA-α Relative value (based on control) [6, 20]: 2.99
total collagen content in lung (hydroxyproline value, ratio compared with normal group) [7]: 192
Eosinophil count in BALF [8]: 0
Lymphocyte count in BALF [8]: 5
Macrophage count in BALF [8]: 53
Neutrophil count in BALF [8]: 10
total cell in BALF [8]: 69 10^4
drug interaction when administered in combination with the first component vs alone [9]: no clinically significant drug interaction
change in body weight ([10]; Day 0): 0.0
change in body weight ([10]; Day 7): −10.1
change in body weight ([10]; Day 14): −22.6
change in body weight ([10]; Day 17): −20.0
change in body weight ([10]; Day 21): −18.2
